Two compounds from patent US20250049816A1, “COMPOSITIONS COMPRISING THYMOQUINONE AND VITAMIN D” (N.S. Oils Ltd., priority 2021, published 2025) can be followed below.

Common to all, as to format: cell-based, murine
The subject of experiment [1] is PGC-1α. Description: Western blot, PGC-1α expression in cultured adipocytes. The note with it: TQ 1 μM, vitamin D3 10 nM, alone or combined; 6 days; relative to β-actin; FIG. 7. On the procedure: (§1) 3T3-L1 murine fibroblasts were obtained from American Type Culture Collection (Rockville, MD, USA). After thawing, cells were resuspended in DMEM, supplemented with 10% heat-inactivated fetal bovine serum (FBS, Invitrogen, Carlsbad, CA, USA) and 1% antibiotic/antimycotic solution (Invitrogen). Culture medium was replaced every 3 days containing 0.25 μM dexamethasone, 10 μg/ml insulin and 0.5 mM 3-isobutyl-1-methylxanthine (Sigma-Aldrich, St. Louis, MO, USA) in DMEM with 10% FBS. Differentiating 3T3-L1 preadipocytes were treated with TQ or Vitamin D3 or combinations thereof for 6 days.
(§2) The cultured adipocytes were homogenized and lysed in RIPA lysis buffer containing protease and phosphatase inhibitors (Complete TM Mini and PhosSTOPTM, Roche Diagnostics, Indianapolis, IN). […] The blots were visualized using an Odyssey Infrared Imaging Scanner (Li-Cor Science Tec) and quantified by densitometric analysis after normalization with β-actin. […]
(§3) The aim of this study was to investigate the effect of a combination of vitamin D3 (10 nM) and TQ (1 μM) on the expression of the UCP1, PGC-1α and Mfn2 genes in cultured adipocytes. […] Following SDS-PAGE separation and western blotting, the three gene products were detected using the appropriate antibodies, and the level of each protein measured, all as described above in the general methods section.
A general note: Immunoblotting shows a protein as a band on a membrane.

The subject of experiment [2] is differentiated adipocytes (3T3-L1 cells). Description: Oil red O staining, lipid droplet size in differentiated cultured adipocytes. As to conditions: 6 days, vs untreated control (C). On the procedure: as §1
The size of the lipid droplets in differentiated adipocytes (i.e., 3T3-L1 cells prepared as in the previous section) following the various treatments was measured using oil red O staining. Briefly, differentiated adipocytes were washed with phosphate buffered saline (PBS) and fixed in 3.7% formaldehyde for 10 min. Cells were stained with oil red O solution for 30 min at 25° C. Staining was visualized using bright-field microscopy. Lipid droplet size was then measured using Image Pro (advance Imaging Concept, Inc., Princeton, NJ).
The aim of this study was to investigate the effect of combinations of TQ and vitamin D3 on the accumulation of lipids in cultured adipocytes. For the purpose of this investigation, 3T3-L1 murine fibroblasts were grown and differentiated as described hereinabove. The differentiated cultures were then treated for six days with TO, vitamin D3 or combinations thereof. Following this treatment, the size of the accumulated lipid droplets within the cultured cells were assessed using the oil red O staining method described hereinabove.

The test system of experiment [3] is TNF-α. The experiment is described as follows: Western blot, TNF-α levels produced by cultured differentiated 3T3-L1 cells. As to conditions: 1 μM TQ alone or 10 nM Vitamin D3 alone, vs untreated control (C), FIG. 9. On the procedure: as §1
The cultured adipocytes were homogenized and lysed in RIPA lysis buffer containing protease and phosphatase inhibitors (Complete TM Mini and PhosSTOPTM, Roche Diagnostics, Indianapolis, IN). Protein samples were separated using 10% sodium dodecyl sulfate-polyacrylamide (SDS) gels and transferred to a nitrocellulose membrane (Bio-Rad, Hercules, CA, USA). […] The blots were visualized using an Odyssey Infrared Imaging Scanner (Li-Cor Science Tec) and quantified by densitometric analysis after normalization with β-actin. […]
The levels of TNF-α produced by cultured, differentiated 3T3-L1 cells were measured using specific anti-TNF-α antibodies in a western blot assay, as described hereinabove. […]

Experiment [4] deals with UCP1. Description: Western blot, UCP1 expression in cultured adipocytes. The note with it: TQ 1 μM, vitamin D3 10 nM, alone or combined; 6 days; relative to β-actin; FIG. 6. On the procedure: as §1, §2, §3
In experiment [5] the test system is Mfn2. The experiment is described as follows: Western blot, Mfn2 expression in cultured adipocytes. The note with it: TQ 1 μM, vitamin D3 10 nM, alone or combined; 6 days; relative to β-actin; vs untreated control (C); FIG. 8. On the procedure: as §1, §2, §3

Entries after “also recorded” stand apart in the source; their conditions may differ.

Take `C=C1CC[C@H](O)C/C1=C/C=C1\CCC[C@]2(C)[C@@H]([C@H](C)CCCC(C)C)CC[C@@H]12` [Vitamin D3, cholecalciferol, reference compound]: the PGC-1α expression entry in experiment [1] is “statistically significant elevation of PGC-1α expression”. In addition, the “average lipid droplet size” value is on record as “slight reduction in lipid droplet size, this reduction was not statistically significant” in experiment [2] (Vitamin D3 1 nM, FIG. 2); “statistically significant reduction in lipid droplet size” in experiment [2] (Vitamin D3 10 nm, FIG. 2); “statistically significant reduction in lipid droplet size” in experiment [2] (Vitamin D3 100 nm, FIG. 2). The “decrease in TNF-α expression” value in experiment [3] is “approximately 50%”. In addition, the UCP1 expression result in experiment [4] is recorded as “statistically significant elevation of UCP1 expression”. Moreover, the Mfn2 expression entry in experiment [5] was “statistically significant elevation of Mfn2 expression”.

Consider `CC1=CC(=O)C(C(C)C)=CC1=O` [TQ, thymoquinone], for which the PGC-1α expression result in experiment [1] is on record as “statistically significant elevation of PGC-1α expression”. In addition, the “average lipid droplet size” value is reported as “statistically significant reduction in lipid droplet size” in experiment [2] (TQ 1 μM, FIG. 1); “statistically significant reduction in lipid droplet size; also recorded: greater degree of size reduction than that caused by the 1 μM dose; also recorded: greatest effect” in experiment [2] (TQ 2 μM, FIG. 1); “statistically significant reduction in lipid droplet size; also recorded: did not cause any further enhancement of this effect; also recorded: greatest effect” in experiment [2] (TQ 4 μM, FIG. 1). In experiment [3], the “decrease in TNF-α expression” value was “approximately 50%”. Also, the UCP1 expression entry in experiment [4] is “statistically significant elevation of UCP1 expression”. Moreover, the Mfn2 expression result in experiment [5] was “statistically significant elevation of Mfn2 expression”.
